pEC50: −log10 of the molar value.
Key:
[1] = biological target: T1, Retinoic acid receptor gamma (RARg) (Homo sapiens, UniProt P13631); assay: RARg Transactivation Assay (GeneBLAzer RAR gamma-UAS-bla HEK 293T); type: cell-based; conditions: solution in DMSO at different concentrations
T1 construct: the UAS-driven beta-lactamase is the reporter
T1 sequence (P13631 185-419 limits assumed): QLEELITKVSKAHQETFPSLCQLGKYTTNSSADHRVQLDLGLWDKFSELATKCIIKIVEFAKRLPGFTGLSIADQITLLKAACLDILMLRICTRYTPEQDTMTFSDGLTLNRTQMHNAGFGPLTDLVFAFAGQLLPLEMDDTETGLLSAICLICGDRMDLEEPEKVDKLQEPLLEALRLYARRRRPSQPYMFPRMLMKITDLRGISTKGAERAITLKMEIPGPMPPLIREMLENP
Experimental: Retinoic acid receptor gamma (RARg) agonism was assessed using the Invitrogen GeneBLAzer RAR gamma-UAS-bla HEK 293T cell-based assay, in which activation of RARg results in transcription of beta lactamase. When a FRET probe is added to cells, FRET is observed. However, upon receptor activation and subsequent beta lactamase expression, the probe is cleaved and FRET is no longer observed.
Cells in culture are washed with PBS, trypsinized and resuspended in growth media, counted using ViCell cell counter; the appropriate amount of cells is then spun down and resuspended in assay buffer (at 0.5E6 cells/ml). 15 k cells in 30 ul assay buffer is plated per well in Greiner black walled, clear flat bottom plates using Combi dispenser. The last two columns are filled with assay buffer. […]
After 18-20 h of incubation, 8 ul FRET dye (Invitrogen K1096) is added using Tempest dispenser, after which plates are spun down at 800 rpm for 2 min without brakes and incubated in the dark at room temperature for 2 h. The bottom of the plates is cleaned using anti-static cleaning wipe before measuring fluorescence using BMG Pherastar plate reader (using FRET module, 10 reads, gain for both channels=1000, Ex 409, Em1 460, Em2 530). […]

[2] = tested on: human epidermal skin equivalents; assay: Oleic acid induced hyperkeratinization in human epidermal skin equivalents; type: cell-based; conditions: for % Hyperkeratinization (normalized by 10% OA), Average / Stratum Corneum Thickness (% of Total Epidermis), Average: topical
Experimental: Human epidermal skin equivalents from MatTek Company (Ashland, MA, USA) were used. The skin equivalents were topically treated with 10% oleic acid (OA) either without or with the addition of 1 μM 3-(4-farnesyloxyphenyl)-propionic acid in a proprietary MatTek medium (pheno-red free, hydrocortisone free) for 48 hours. The epidermal skin equivalents were collected at the end of treatment and fixed in 10% neutral buffered formalin solution (Thermo Fisher Scientific, Hudson, NH, USA), dehydrated and embedded in paraffin. Tissue sections (5 μm thick) were cut and were stained with hematoxylin-eosin. Three pictures per section were taken for each skin equivalent. The thickness of the stratum cornea or epidermis was measured using ImagePro Plus (Media Cybernetics Inc., Rockville, MD, USA). The stratum corneum thickness was expressed as % of total epidermis (=thickness of stratum corneum divided by the sum of thicknesses of stratum corneum and epidermis). The % hyperkeratinizatin was normalized by the thickness of 10% OA-treated tissues. Statistical analysis was performed using two-tailed two-sample equal variance Student t test (Microsoft Office Excel 2007; Microsoft, Redmond, WA, USA).

[3] = 1 uM together with 10% oleic acid, 48 hours

Row | pEC50 [1] | SMILES | % Hyperkeratinization (normalized by 10% OA), Average [2, 3] | Stratum Corneum Thickness (% of Total Epidermis), Average [2, 3] | oleic-acid (OA) induced hyperkeratinization (in words) ([2]; 1 uM with 10% oleic acid, 48 hours, p<0.05) | Stratum Corneum Thickness (% of Total Epidermis), Average ([2]; 10% oleic acid alone, 48 hours) | % Hyperkeratinization (normalized by 10% OA), Average ([2]; 10% oleic acid alone, 48 hours (reference))
1 | 6.23 | CC(C)=CCCC(C)=CCCC(C)=CCOc1ccc(CCC(=O)O)cc1 [3-(4-farnesyloxyphenyl)-propionic acid] | 76% | 38% | significantly (p<0.05) reduced | – | –
2 | – | CCCCCCCC/C=C\CCCCCCCC(=O)O [oleic acid, reference compound] | – | – | – | 50% | 100%
